The text below walks through data of patent US8354403B2, “Pyrrolidine derived beta 3 adrenergic receptor agonists” (Merck Sharp & Dohme Corp., priority 2009, dated 2013).

The target of the first experiment is T1, human β3 adrenergic receptor (Homo sapiens, UniProt P13945).
T1 construct: expressed in transfected cells; host or cells: Chinese hamster ovary (CHO) cells, stably transfected
T1 sequence (P13945 whole entry): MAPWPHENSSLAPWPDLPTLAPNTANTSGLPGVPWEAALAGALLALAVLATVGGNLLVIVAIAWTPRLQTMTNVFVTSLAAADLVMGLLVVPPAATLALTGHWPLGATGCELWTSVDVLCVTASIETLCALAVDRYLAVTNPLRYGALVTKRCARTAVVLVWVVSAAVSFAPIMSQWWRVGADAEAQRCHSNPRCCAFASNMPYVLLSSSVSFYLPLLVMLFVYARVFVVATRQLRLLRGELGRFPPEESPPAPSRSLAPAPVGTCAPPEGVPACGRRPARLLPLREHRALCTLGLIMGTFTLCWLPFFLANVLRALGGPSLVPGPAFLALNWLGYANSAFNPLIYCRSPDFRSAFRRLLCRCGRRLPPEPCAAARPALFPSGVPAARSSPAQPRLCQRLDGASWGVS
The experiment in a line: Beta-3 agonist in vitro functional assay: cAMP production (LANCE TR-FRET) in CHO cells stably transfected with the cloned β3 receptor. Format: cell-based. Conditions: Table 4; cAMP, CHO cells; read-out: Human β3 agonist functional activity. In a few lines: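 CHO cells stably expressing the cloned receptor, in HEPES-buffered HBSS with BSA and 0.6 mM IBMX, 6,000 cells/well, exposed to compound for 30 min at RT. cAMP read by LANCE TR-FRET against a cAMP standard curve. Isoproterenol defines maximal stimulation.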
(In general: Cyclic AMP is a second messenger, typically raised through Gs and lowered through Gi signalling.)
`O=C(c1ccc(C[C@@H]2CC[C@H]([C@H](O)c3ccccc3)N2)cc1)N1Cc2cocc2C1` [Example 26]: the EC50 is 0.01 to 0.0999 µM.
The same measure, in the same setting: the same measure for `O=C(c1ccc(C[C@@H]2CC[C@H]([C@H](O)c3ccccc3)N2)cc1)N1CCCC(c2nc3ccccc3o2)C1` (stereo partly drawn) [Example 33]: 0.1 to 0.999 µM; for `O=C(c1ccc(C[C@@H]2CC[C@H]([C@H](O)c3ccccc3)N2)cc1)N1CCCCC1c1nccs1` (stereo partly drawn) [Example 50]: 0.1 to 0.999 µM; for `O=C(c1ccc(C[C@@H]2CC[C@H]([C@H](O)c3ccccc3)N2)cc1)N1CCCC2(CCCNC2=O)C1` (stereo partly drawn) [Example 39]: 0.1 to 0.999 µM.
On the same count and under the same terms, the same measure for `O=C(c1ccc(C[C@@H]2CC[C@H]([C@H](O)c3ccccc3)N2)cc1)N1Cc2c[nH]nc2C1` [Example 27]: 0.01 to 0.0999 µM.
The same measure, in the same setting: the same measure for `O=C(c1ccc(C[C@@H]2CC[C@H]([C@H](O)c3ccccc3)N2)cc1)N1CCc2onc(O)c2C1` [Example 53]: 0.999 to 3 µM.

The experiment is the same for the next values; noted with them: Table 5; cAMP, CHO cells; read-out: Human β3 agonist functional activity.
In the case of `O=C(c1ccc(C[C@@H]2CC[C@H]([C@H](O)c3ccccc3)N2)cc1)N1CCC(Oc2cncc(Cl)n2)CC1` [Example 155], the EC50 fell in the range of 0.1 to 0.999 µM.
Same read-out and setting: the same measure for `O=C(c1ccc(C[C@@H]2CC[C@H]([C@H](O)c3ccccc3)N2)cc1)N1CCC(c2nnc(-c3cnccn3)[nH]2)CC1` [Example 81]: 0.1 to 0.999 µM.
Consider `O=C(c1ncc(-c2cccc(F)n2)o1)C1CCN(C(=O)c2ccc(C[C@@H]3CC[C@H]([C@H](O)c4ccccc4)N3)cc2)CC1` [Example 121], for which the EC50 fell in the range of 0.001 to 0.0099 µM.
Take `O=C(c1ccc(C[C@@H]2CC[C@H]([C@H](O)c3ccccc3)N2)cc1)N1CCC(n2cc(-c3ccccc3)[nH]c2=O)CC1` [Example 84]: the EC50 was 0.01 to 0.0999 µM.
Same read-out and setting: the same measure for `CCOC(=O)C1CCN(C(=O)c2ccc(C[C@@H]3CC[C@H]([C@H](O)c4ccccc4)N3)cc2)CC1` [Example 118]: 0.01 to 0.0999 µM.
Take `O=C(c1ccc(C[C@@H]2CC[C@H]([C@H](O)c3ccccc3)N2)cc1)N1CCC(Cc2ccc(F)cc2)CC1` [Example 145]: the EC50 was in the range of 0.01 to 0.0999 µM.
`Cc1nnnn1C1CCN(C(=O)c2ccc(C[C@@H]3CC[C@H]([C@H](O)c4ccccc4)N3)cc2)CC1` [Example 101]: the EC50 is 0.001 to 0.0099 µM.
With `O=C(c1ccc(C[C@@H]2CC[C@H]([C@H](O)c3ccccc3)N2)cc1)N1CCC(S(=O)(=O)c2cccc(F)c2)CC1` [Example 130], the EC50 was in the range of 0.001 to 0.0099 µM.
Still for that read-out and setting: as for `O=C(O)c1cc(OC2CCN(C(=O)c3ccc(C[C@@H]4CC[C@H]([C@H](O)c5ccccc5)N4)cc3)CC2)no1` [Example 160], the figure is 0.1 to 0.999 µM; as for `Cc1nc(C2CCN(C(=O)c3ccc(C[C@@H]4CC[C@H]([C@H](O)c5ccccc5)N4)cc3)CC2)ns1` [Example 89], 0.1 to 0.999 µM.
On the same count and under the same terms, the same measure for `O=C(c1ccc(C[C@@H]2CC[C@H]([C@H](O)c3cccnc3)N2)cc1)N1CCC(c2cccc(F)n2)CC1` [Example 113]: 0.01 to 0.0999 µM; for `O=C(c1ccc(C[C@@H]2CC[C@H]([C@H](O)c3ccccc3)N2)cc1)N1CCC(Cn2cnccc2=O)CC1` [Example 149]: 0.1 to 0.999 µM; for `O=C(c1ccc(C[C@@H]2CC[C@H]([C@H](O)c3ccccc3)N2)cc1)N1CCC(Cc2ccccc2F)CC1` [Example 144]: 0.01 to 0.0999 µM.
On to `O=C(c1ccc(C[C@@H]2CC[C@H]([C@H](O)c3ccccc3)N2)cc1)N1CCCCC1` [Example 67], for which the EC50 lay within 0.1 to 0.999 µM.

The experiment is the same for the next values; noted with them: Table 7; cAMP, CHO cells; ranges as given for Tables 6 and 7; read-out: Human β3 agonist functional activity.
As for `O=C(c1ccc(CC2CCC(C(O)c3ccccc3)N2)cc1)N1CC2C(C1)C2Cn1nccn1` (stereo not drawn) [Example 232], the EC50 was in the range of 0.1 to 0.999 µM.
Still for that read-out and setting: the same measure for `O=C(c1ncco1)C1C2CN(C(=O)c3ccc(C[C@@H]4CC[C@H]([C@H](O)c5ccccc5)N4)cc3)CC21` (stereo partly drawn) [Example 234]: 0.01 to 0.0999 µM; for `CCOC(=O)C1C2CN(C(=O)c3ccc(CC4CCC(C(O)c5ccccc5)N4)cc3)CC21` (stereo not drawn) [Example 230]: 0.01 to 0.0999 µM.

Staying with this experiment, now noted: Table 8; Beta-3 agonist in vitro functional assay; read-out: Human β3 agonist functional activity.
Take `O=C(c1ccc(C[C@@H]2CC[C@H]([C@H](O)c3ccccc3)N2)cc1)N1CCC2(CC1)CCN(Cc1ccccc1)C2=O` [Example 255]: the EC50 lay within 0.001 to 0.0099 µM.
On the same count and under the same terms, the same measure for `O=C1CC2(CCN(C(=O)c3ccc(C[C@@H]4CC[C@H]([C@H](O)c5ccccc5)N4)cc3)CC2)S(=O)(=O)c2sccc21` [Example 340]: 0.001 to 0.0099 µM; for `O=C(c1ccc(C[C@@H]2CC[C@H]([C@H](O)c3ccccc3)N2)cc1)N1CCC2(CCCC2O)CC1` (stereo partly drawn) [Example 314]: 0.1 to 0.999 µM; for `O=C1CC2(CCN(C(=O)c3ccc(C[C@@H]4CC[C@H]([C@H](O)c5ccccc5)N4)cc3)CC2)S(=O)(=O)c2ccccc21` [Example 338]: 0.001 to 0.0099 µM.
Same read-out and setting: the same measure for `O=C(c1ccc(C[C@@H]2CC[C@H]([C@H](O)c3ccccc3)N2)cc1)N1CCC(C(=O)O)(c2ccccc2)CC1` [Example 241]: 0.1 to 0.999 µM.
Regarding `O=C1OC2(CCN(C(=O)c3ccc(C[C@@H]4CC[C@H]([C@H](O)c5ccccc5)N4)cc3)CC2)c2ccncc21` [Example 285], the EC50 is 0.01 to 0.0999 µM.

Staying with this experiment, now noted: Table 9; Beta-3 agonist in vitro functional assay; read-out: Human β3 agonist functional activity.
Take `O=C(c1ccc(C[C@@H]2CC[C@H]([C@H](O)c3ccccc3)N2)cc1)N1CCN(Cc2n[nH]c3ncccc23)CC1` [Example 406]: the EC50 was in the range of 0.01 to 0.0999 µM.
Still for that read-out and setting: as for `CC(=O)N1CCN(C(=O)c2ccc(C[C@@H]3CC[C@H]([C@H](O)c4ccccc4)N3)cc2)CC1` [Example 343], the figure is 0.1 to 0.999 µM.
In the case of `O=C(c1ccc(C[C@@H]2CC[C@H]([C@H](O)c3ccccc3)N2)cc1)N1CCN(S(=O)(=O)c2ccccc2)CC1` [Example 346], the EC50 was 0.01 to 0.0999 µM.
Consider `O=C(c1ccc(C[C@@H]2CC[C@H]([C@H](O)c3ccccc3)N2)cc1)N1CCN(c2cc3ccccc3cn2)CC1` [Example 374], for which the EC50 fell in the range of 0.1 to 0.999 µM.
Same read-out and setting: the same measure for `COc1cccnc1N1CCN(C(=O)c2ccc(C[C@@H]3CC[C@H]([C@H](O)c4ccccc4)N3)cc2)CC1` [Example 361]: 0.01 to 0.0999 µM; for `COc1ccccc1CN1CCN(C(=O)c2ccc(C[C@@H]3CC[C@H]([C@H](O)c4ccccc4)N3)cc2)CC1` [Example 409]: 0.01 to 0.0999 µM; for `CC(c1ncccc1F)N1CCN(C(=O)c2ccc(C[C@@H]3CC[C@H]([C@H](O)c4ccccc4)N3)cc2)CC1` (stereo partly drawn) [Example 425]: 0.01 to 0.0999 µM.
`O=C(c1ccc(C[C@@H]2CC[C@H]([C@H](O)c3ccccc3)N2)cc1)N1CCN(Cc2nccc3ccccc23)CC1` [Example 429]: the EC50 was in the range of 0.01 to 0.0999 µM.
Turning to `CC(c1ccccn1)N1CCN(C(=O)c2ccc(CC3CCC(C(O)c4ccccc4)N3)cc2)CC1` (stereo not drawn) [Example 430], the EC50 was in the range of 0.001 to 0.0099 µM.

Staying with this experiment, now noted: Table 10; Beta-3 agonist in vitro functional assay; read-out: Human β3 agonist functional activity.
As for `CC(C(=O)NCC1(O)CC1)N1CCN(C(=O)c2ccc(C[C@@H]3CC[C@H]([C@H](O)c4ccccc4)N3)cc2)CC1` (stereo partly drawn) [Example 449], the EC50 fell in the range of 0.01 to 0.0999 µM.
With `CC(C(=O)N1CCC(O)C1)N1CCN(C(=O)c2ccc(C[C@@H]3CC[C@H]([C@H](O)c4ccccc4)N3)cc2)CC1` (stereo partly drawn) [Example 477], the EC50 lay within 0.1 to 0.999 µM.
Same read-out and setting: the same measure for `CC(C(=O)N1CCc2nc(C3CC3)sc2C1)N1CCN(C(=O)c2ccc(C[C@@H]3CC[C@H]([C@H](O)c4ccccc4)N3)cc2)CC1` (stereo partly drawn) [Example 505]: less than 0.001 µM; for `CC(C(=O)N(C)CCO)N1CCN(C(=O)c2ccc(C[C@@H]3CC[C@H]([C@H](O)c4ccccc4)N3)cc2)CC1` (stereo partly drawn) [Example 519]: 0.1 to 0.999 µM.
For `CC(C(=O)NCC(N)=O)N1CCN(C(=O)c2ccc(C[C@@H]3CC[C@H]([C@H](O)c4ccccc4)N3)cc2)CC1` (stereo partly drawn) [Example 445], the EC50 was 0.1 to 0.999 µM.
`CC(C(=O)NC1CCN(C)C1=O)N1CCN(C(=O)c2ccc(C[C@@H]3CC[C@H]([C@H](O)c4ccccc4)N3)cc2)CC1` (stereo partly drawn) [Example 459]: the EC50 is less than 0.001 µM.
In the case of `CC(C(=O)NCc1nccn1C)N1CCN(C(=O)c2ccc(C[C@@H]3CC[C@H]([C@H](O)c4ccccc4)N3)cc2)CC1` (stereo partly drawn) [Example 463], the EC50 lay in the range of 0.1 to 0.999 µM.
As to `CC(C(=O)N1CC[C@H](F)C1)N1CCN(C(=O)c2ccc(C[C@@H]3CC[C@H]([C@H](O)c4ccccc4)N3)cc2)CC1` (stereo partly drawn) [Example 475], the EC50 fell in the range of 0.001 to 0.0099 µM.
Consider `CC(C(=O)NCc1nnc2n1CCC2)N1CCN(C(=O)c2ccc(C[C@@H]3CC[C@H]([C@H](O)c4ccccc4)N3)cc2)CC1` (stereo partly drawn) [Example 466], for which the EC50 fell in the range of 0.1 to 0.999 µM.

Staying with this experiment, now noted: Table 11; cAMP, CHO cells; read-out: Human β3 agonist functional activity.
`O=C(c1ccc(C[C@@H]2CC[C@H]([C@H](O)c3ccccc3)N2)cc1)N1CC2CCC1CN2Cc1ccccn1` (stereo partly drawn) [Example 536]: the EC50 is 0.1 to 0.999 µM.
As to `O=C(c1ccc(C[C@@H]2CC[C@H]([C@H](O)c3ccccc3)N2)cc1)N1C2CCC1CN(c1nccs1)C2` [Example 543], the EC50 lay within 0.01 to 0.0999 µM.
Still for that read-out and setting: as for `C[C@H]1CN(Cc2ccccn2)CCN1C(=O)c1ccc(C[C@@H]2CC[C@H]([C@H](O)c3ccccc3)N2)cc1` [Example 530], the figure is 0.01 to 0.0999 µM.

Staying with this experiment, now noted: Table 12; human β3 functional activity given as ranges; read-out: Human β3 agonist functional activity.
As for `O=C(c1ccc(CC2CCC(C(O)c3cccnc3)N2)cc1)N1CCC2(CC1)C(=O)NCC2c1ccc(F)cc1` (single isomer, unassigned) [Example 555], the EC50 lay within 0.001 to 0.0099 µM.
Take `CC(c1ccccc1F)N1CCN(C(=O)c2ccc(CC3CCC(C(O)c4ccccc4)N3)cc2)CC1` (single isomer, unassigned) [Example 573]: the EC50 fell in the range of 0.001 to 0.0099 µM.
Take `CCC(c1ccccn1)N1CCN(C(=O)c2ccc(CC3CCC(C(O)c4ccccc4)N3)cc2)CC1` (single isomer, unassigned) [Example 587]: the EC50 was 0.01 to 0.0999 µM.

Staying with this experiment, now noted: given as a range; cAMP, CHO cells; read-out: human β3 functional activity.
Regarding `O=C(c1ccc(C[C@@H]2CC[C@H]([C@H](O)c3ccccc3)N2)cc1)N1C2CCC1C1CCC2N1Cc1ccccn1` [Example 524, (R)-phenyl[(2R,5S)-5-(4-{[10-(pyridin-2-ylmethyl)-9,10-diazatricyclo[4.2.1.1^2,5]dec-9-yl]carbonyl}benzyl)pyrrolidin-2-yl]methanol], the EC50 is 0.01 to 0.0999 µM.
